Results: patent US7189756B2, “Pyrrolidine derivatives” (Hoffman-La Roche Inc., priority 2000, dated 2007)

| melting point [°C] | Compound |
| --- | --- |
| 95 | CCOC(=O)c1nnn(C[C@@H]2C[C@@H](S)CN2S(=O)(=O)c2ccc3ccccc3c2)c1C |
| 146 | Cc1c(-c2ccccc2)nnn1C[C@@H]1C[C@@H](S)CN1S(=O)(=O)c1ccc2ccccc2c1 |
| 70 | Nc1c(-c2ccccc2)nnn1C[C@@H]1C[C@@H](S)CN1S(=O)(=O)c1ccc2ccccc2c1 |
| 189 | CS(=O)(=O)N1C[C@H](S)C[C@H]1Cn1nnc(C(N)=O)c1N |
| 68 to 69 | CS(=O)(=O)N1C[C@H](S)C[C@H]1COCC1CCCCC1 |
| 126 | O=C(Nc1ccccc1F)N1C[C@H](S)C[C@H]1CNCc1cc(F)ccc1F |
